According to patent publication US11254781B2, “Urethane-crosslinked biodegradable elastomers” (Massachusetts Institute of Technology, priority 2011, dated 2022):

System: adult male Wistar rats
Conditions: rat, in vivo
Description: In vivo cardiac biocompatibility of PGSU-SF films All surgical procedures were approved by the IACUC of the Children's Hospital Boston and performed according to the NIH Guidelines for the Care and Use of Laboratory Animals Briefly, adult male Wistar rats (Charles River Laboratories, Wilmington, Mass.) were anesthetized with an intraperitoneal injection of ketamine (100 mg/kg) and xylazine (10 mg/kg), followed by intratracheal intubation. Rats were ventilated with a small animal respirator (Harvard Apparatus, Holliston, Mass.), and anesthesia was maintained with 0.5 to 1.0% isofluorane and 100% oxygen. The heart was accessed through an anterior right-sided thoracotomy, followed by the removal of the pericardial sac. A 1 mm thick and 7 mm in diameter porous PGSU-SF 1:0.3 patch was sutured on the left ventricle (LV) epicardial surface of the rat heart using three 7-0 polypropylene monofilament stitches. The chest wall was closed in layers, and the thoracic cavity evacuated with a 18-gauge intravenous catheter Animals were sacrificed at 1 and 4 weeks (n=4 per time point) after the surgical procedure with CO2, followed by immediate excision of the heart. Tissue sections transverse to the patch and heart surface were stained with Hematoxylin and Eosin stain (H&E). […]

In the case of “poly (glycerol sebacate urethane) [PGSU-SF 1:0.3]”, the “cardiac function (echocardiography)” value is reported as “No changes” and the chest adhesions is reported as “Moderate”.
